Tests used:
[1] = molecular target: MM.1S, B Lymphoblast (multiple myeloma); experiment: Viability assay (MTT, Alamar Blue, hexosaminidase), 72 h; format: cell-based; settings: MM.1S cells, read-out: EC50
How it was run: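 MM.1S cells (RPMI-1640, 10% FBS, 2 mM glutamine, 37 °C) were seeded at 10000 cells/well and dosed after 24 h, starting at 100 μM with 1:1 serial dilutions, in triplicate, for 72 h. Viability was read sequentially by MTT (570 nm), Alamar Blue (535/590) and hexosaminidase (pH 5.0). Values were normalized to control (100%), and EC50 came from a variable-slope sigmoidal fit.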

[2] = molecular target: HL-60, promyeloblast (acute myelocytic leukemia, AML); experiment: as above; format: cell-based; settings: HL-60 cells, read-out: EC50
How it was run: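 HL-60 seeded at 10000 cells/well in RPMI-1640/10% FBS, dosed after 24 h from 100 μM top concentration in 1:1 serial dilutions, incubated 72 h at 37° C. Viability read consecutively by MTT, Alamar Blue and hexosaminidase, normalised to untreated cells; EC50 from variable-slope sigmoidal fit, triplicates.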

[3] = molecular target: A549, epithelial (lung cancer); experiment: as above; format: cell-based; settings: A549 cells, read-out: EC50
How it was run: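 A549 cells (5000/well, DMEM+10% FBS) were exposed for 72 h at 37° C. to compound, twofold serial dilutions from 100 μM, in triplicate. Viability was read consecutively by MTT (A570), Alamar Blue fluorescence and hexosaminidase activity, normalised to untreated cells. EC50 came from a variable-slope sigmoidal fit.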

[4] = molecular target: RAMOS, B lymphocyte (Burkitt's Lymphoma); experiment: as above; format: cell-based; settings: Ramos cells, read-out: EC50
How it was run: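 Ramos cells seeded at 10000 cells/well in DMEM + 10% FBS; after 24 h, compounds added as 1:1 serial dilutions from 100 μM and incubated 72 h at 37 °C. Viability read sequentially by MTT (A570), Alamar Blue (535/590) and hexosaminidase activity, normalized to untreated cells; EC50 from variable-slope sigmoidal fit.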

[5] = molecular target: MCF-7, epithelial (breast cancer); experiment: as above; format: cell-based; settings: MCF7 cells, read-out: EC50
How it was run: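 Cells seeded at 5000/well, compounds added 24 h later from 100 μM in 1:1 serial dilutions, triplicate, 72 h at 37° C. Viability read consecutively by MTT (A570), Alamar Blue fluorescence and hexosaminidase activity, normalized to untreated control = 100%; EC50 from variable-slope sigmoidal fit.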

[6] = system: JB healthy cells (BJ, fibroblast, normal skin); experiment: as above; format: cell-based
Protocol: BJ, fibroblast (normal skin), ATCC® CRL-2522™
Cell lines A549, MCF-7 and RAMOS were cultured in incubator under CO2 (6%) at 37° C. in DMEM high glucose (Dulbecco's Modified Eagle Solution, Gibco-BRL 31966-21) medium with 10% fetal bovine serum inactivated (FBS) (Gibco-BRL 10106-169). Cell lines HL-60 and MM.1S were cultured in incubator at 37° C. in RPMI-1640 (Sigma R8758) medium with 10% of fetal bovine serum inactivated (FBS) and 2 mM glutamine (Sigma G7513). Cell lines BJ were cultured in incubator under CO2 (6%) at 37° C. in Eagle's Minimum Essential Medium (Sigma, M-2279) with 10% fetal bovine serum inactivated (FBS) (Gibco-BRL 10106-169).
During the amplification step and the assays adherent cells were rinsed with DPBS (Dulbecco's Phosphate Buffered Saline, Sigma D1283) three times and afterward treated for 5 minutes with trypsin ([…]) (Gibco-BRL, 15400054) in solution of DPBS at 37° C., and, once detached, transferred in the culturing medium. […] Cells were counted in a Neubauer chamber after labelling with Tripan-Blue. […]
Cells were incubated during 72 h in incubator under CO2 atmosphere at 37° C. Cell viability was measured by means of MTT (3-(4,5-dimethylthiazol-2-yl)-2.5-diphenyltetrazolium bromide) assay, Alamar Blue® (Biosource DAL1100) and Hexosaminidase activity test, consecutively, following manufacturer instructions. […]

MM1S cells = experiment: Subcutaneous xenograft model, tumor volume and survival; format: in vivo, CB17-SCID immunosuppressed mice; settings: 5 mg/kg i.p. each 12 h; for Tumor Volume: in mm³ (unit assumed)
Protocol: CB17-SCID immunosuppressed mice (female) of 6-7 weeks old housed and handled in a pathogen-free zone. They were purchased from Janvier Labs. All experiments were carried out within the facilities of the University of Salamanca.
Groups Studied: • Control: Medium (PBS) i.p. each 12 hours from Monday to Friday. • S03 i.p. each 12 hours from Monday to Friday (in PBS until end point) • S04 15 mg/kg i.p. each 12 hours from Monday to Friday (in PBS until end point) • S09 5 mg/kg i.p. each 12 hours from Monday to Friday (in PBS until end point)
Subcutaneous xenoaraft model: The mice were shaved on the right flank and anesthetized by inhalation to decrease their mobility, were inoculated subcutaneously with 3×10^6 MM1S cells in 50 μl of RPMI-1640 medium and 50 μl of Corning® Matrigel® Basement Membrane Matrix. When the tumors became palpable (at 30 days), the mice were randomized into the different groups (5 mice in the control group and 4 in the remaining groups) according to the tumor volume. This was estimated by measurements with a caliper of the two tumor diameters and using the following formula of a spheroid: V=(a·b^2·π)/6, where a and b correspond to the longest and shortest diameter, respectively. Tumor volume was monitored three times per week.
Survival evaluation: Mice were sacrificed when their tumor diameter reached 2 cm. The time to reach the endpoint criterion was estimated from the day of treatment start. The statistical differences were evaluated using Kaplan-Meier curves with the log rank test. Statistical analyzes were performed using the SPSS-17.0 program.

## RQRRNXLKRAFAXLRDQ-OH [IDP-S03]
[1]
  EC50: ~14 µM
[2]
  EC50: ~6.6 µM
[3]
  EC50: 34 ± 6 µM
[4]
  EC50: ~13 µM
[5]
  EC50: 32 ± 5 µM
[6]
  EC50: > 100 µM
MM1S cells
  differences in survival with respect to the control: 9.5
MM1S cells; at the end-time (when the control is sacrificed)
  tumor reduction with respect to the control: 50%
MM1S cells; day of treatment 1 (= 100)
  % Tumor Volume: 100%
MM1S cells; day of treatment 1
  Tumor Volume: 59.0
MM1S cells; day of treatment 5, relative to day 1
  % Tumor Volume: 193.2%
MM1S cells; day of treatment 5
  Tumor Volume: 114.1
MM1S cells; day of treatment 10, relative to day 1
  % Tumor Volume: 443.9%
MM1S cells; day of treatment 10
  Tumor Volume: 262.1
MM1S cells; day of treatment 15, relative to day 1
  % Tumor Volume: 661.6%
MM1S cells; day of treatment 15
  Tumor Volume: 390.7
MM1S cells; day of treatment 19, relative to day 1
  % Tumor Volume: 969.5%
MM1S cells; day of treatment 19
  Tumor Volume: 572.6
MM1S cells; day of treatment 26, relative to day 1
  % Tumor Volume: 2481.2%
MM1S cells; day of treatment 26
  Tumor Volume: 1465.2
MM1S cells; from treatment start until tumor diameter 2 cm
  Mean survival, Average: 40.5 days
